This is an account of results in ChEMBL document CHEMBL1148049, “Antimitotic and cytotoxic flavonols from Zieridium pseudobtusifolium and Acronychia porteri” (J Nat Prod, 1994).

In brackets after ≈: the same amount, converted by molar mass.

One assay relates to KB. Put plainly: Cytotoxicity against human KB cells. The assay is classed as functional, cell-based.
The IC50 is the concentration at which inhibition is half-maximal. With `COc1ccc(-c2oc3c(OC)c(OC)c(OC)c(O)c3c(=O)c2O)cc1O`, the IC50 amounted to 6 µg/mL (≈ 15.4 µM).
As for `COc1ccc(-c2oc3c(OC)c(OC)c(OC)c(O)c3c(=O)c2O)cc1OC`, the IC50 was found to be 0.1 µg/mL (≈ 0.247 µM).
Turning to `COc1cc(-c2oc3c(OC)c(OC)c(OC)c(O)c3c(=O)c2OC)ccc1O`, the IC50 is 0.2 µg/mL (≈ 0.495 µM).
Molecule `COc1ccc(-c2oc3c(OC)c(OC)c(OC)c(O)c3c(=O)c2OC)cc1OC` returned a 50% inhibitory concentration (IC50) of 6 µg/mL (≈ 14.3 µM).
On the same count and under the same terms, for `COc1cc(-c2oc3c(OC)c(OC)c(OC)c(O)c3c(=O)c2O)cc(O)c1OC` the value was 2 µg/mL (≈ 4.76 µM).
In the case of `COc1ccc(-c2oc3c(OC)c(OC)c(OC)c(O)c3c(=O)c2OC)cc1O`, the IC50 was 0.04 µg/mL (≈ 0.0989 µM). Against the preceding molecule, the IC50 is about 50-fold lower.
Still for that read-out and setting: for `COc1c(OC)c(O)c2c(=O)c(OC)c(-c3ccc(O)c(O)c3)oc2c1OC` the value was 0.44 µg/mL (≈ 1.13 µM); for `COc1ccc(-c2oc3cc(O)c(OC)c(O)c3c(=O)c2OC)cc1O` [CENTAUREIDIN], 0.27 µg/mL (≈ 0.749 µM); for `COc1cc(-c2oc3c(OC)c(OC)c(OC)c(O)c3c(=O)c2OC)cc(O)c1OC` [DIGICITRIN], 2 µg/mL (≈ 4.6 µM).

System in the next assay: not listed separately
Put plainly: Inhibition of tubulin assembly.
For the molecule `COc1ccc(-c2oc3c(OC)c(OC)c(OC)c(O)c3c(=O)c2OC)cc1O`, the IC50 came out at 12 µM.
For `COc1ccc(-c2oc3cc(O)c(OC)c(O)c3c(=O)c2OC)cc1O` [CENTAUREIDIN], inhibition was half-maximal at 3 µM (IC50).
Take `CC[C@]1(O)C[C@@H]2CN(CCc3c([nH]c4ccccc34)[C@@](C(=O)OC)(c3cc4c(cc3OC)N(C)[C@H]3[C@@](O)(C(=O)OC)[C@H](OC(C)=O)[C@]5(CC)C=CCN6CC[C@]43[C@@H]65)C2)C1` [VINBLASTINE]: it took 4 µM to reach half-maximal inhibition (IC50). The IC50 values of the last two molecules are within 1.5-fold of each other.
